Active and inactive are the calls of the source. The calls are words filed in the database; no cut-off is given here.
Key:
MDA-MB-231 [1] = experiment: Induction of autophagy in human MDA-MB-231 cells assessed as increase in ratio of LC3-II to LC3-I preincubated with compound for 2 hrs followed by light irradiation with 660 nm 20 mW/cm2 for 10 mins and measured after 12 hrs by Western blot analysis; assay type: functional, cell-based; details: time 850.0 min
MDA-MB-231 [2] = experiment: Induction of DNA damage in human MDA-MB-231 cells assessed as upregulation of gamma-H2AX expression preincubated with compound for 2 hrs followed by light irradiation with 660 nm 20 mW/cm2 for 10 mins and measured after 24 hrs by Western blot analysis; assay type: functional, cell-based; details: time 1570.0 min
[3] = Induction of singlet oxygen production in PBS buffer assessed as decrease in absorption signal at 410 nm under light irradiation with 660 nm 20 mW/cm2 by ABDA based microplate reader analysis relative to control; assay type: functional
MDA-MB-231 [4] = experiment: Induction of pyroptosis in human MDA-MB-231 cells assessed as effect on caspase-1 expression at 0.1 uM preincubated with compound for 2 hrs followed by light irradiation with 660 nm 20 mW/cm2 for 10 mins and measured after 24 hrs by Western blot analysis; assay type: functional, cell-based; details: time 1570.0 min
[5] = Phototoxicity against human MDA-MB-231 cells assessed as reduction in cell viability preincubated with compound for 2 hrs followed by light irradiation with 660 nm 20 mW/cm2 for 10 mins and measured after 24 hrs by CCK-8 assay; assay type: functional, cell-based; details: MDA-MB-231, light or radiation study
MDA-MB-231 [6] = experiment: Cytotoxicity against human MDA-MB-231 cells assessed as reduction in cell viability upto 10 uM incubated for 24 hrs by CCK-8 assay; assay type: functional, cell-based
MDA-MB-231 [7] = experiment: Effect on IL-1beta level in human MDA-MB-231 cells preincubated with compound for 2 hrs followed by light irradiation with 660 nm 20 mW/cm2 for 10 mins and measured after 24 hrs by ELISA analysis; assay type: functional, cell-based; details: time 1570.0 min
4T1 [8] = experiment: Antitumor activity against mouse 4T1 cells implanted in female BALB/c mouse assessed as inhibition of tumor growth at 2.5 mg/kg, iv; assay type: functional, organism-based
MDA-MB-231 [9] = experiment: Induction of pyroptosis in human MDA-MB-231 cells assessed as formation of large bubbles on plasma membrane at 0.25 uM preincubated with compound for 2 hrs followed by light irradiation with 660 nm 20 mW/cm2 for 10 mins and measured after 24 hrs by CLSM imaging analysis; assay type: functional, cell-based; details: time 1570.0 min
[10] = Biodistribution in female BALB/c mouse tumor at 2.5 mg/kg, iv measured at 3 hrs; assay type: ADME, organism-based, Neoplasm; details: in vivo
MDA-MB-231 [11] = experiment: Induction of pyroptosis in human MDA-MB-231 cells assessed as increase in cleaved caspase -3 expression at 0.1 uM preincubated with compound for 2 hrs followed by light irradiation with 660 nm 20 mW/cm2 for 10 mins and measured after 24 hrs by Western blot analysis; assay type: functional, cell-based; details: time 1570.0 min
MDA-MB-231 [12] = experiment: Induction of pyroptosis in human MDA-MB-231 cells assessed as increase in GSDME-N expression at 0.25 uM preincubated with compound for 2 hrs followed by light irradiation with 660 nm 20 mW/cm2 for 10 mins and measured after 24 hrs by Western blot analysis; assay type: functional, cell-based; details: time 1570.0 min
[13] = Toxicity in BALB/c mouse implanted with mouse 4T1 cells assessed as liver damage at 2.5 mg/kg, iv measured after 14 days by H and E staining based analysis; assay type: organism-based; details: in vivo, 336 h, time 14 day
MDA-MB-231 [14] = experiment: Induction of ferroptosis in human MDA-MB-231 cells assessed as reduction in GPX4 expression at 0.1 uM preincubated with compound for 2 hrs followed by light irradiation with 660 nm 20 mW/cm2 for 10 mins and measured after 12 hrs by Western blot analysis; assay type: functional, cell-based; details: time 850.0 min
4T1 [15] = experiment: Antitumor activity against mouse 4T1 cells implanted in female BALB/c mouse assessed as increase in CD4+ T cells at 2.5 mg/kg, iv preincubated with compound for 3 hrs followed by light irradiation with 660 nm 300 mW/cm2 for 3 min and measured after 14 days; assay type: functional, organism-based; details: time 20343.0 min
MDA-MB-231 [16] = experiment: Induction of cell death in human MDA-MB-231 cells assessed as increase in HMGB1 release in nucleus by immunofluorescence staining based analysis; assay type: functional
MDA-MB-231 [17] = experiment: Down regulation of PD-L1 expression in human MDA-MB-231 cells incubated for 24 hrs by Western blot analysis; assay type: functional, cell-based; details: dose 0.5-2.5 µM
[18] = biological target: T1, Bromodomain-containing protein 4 (Homo sapiens, UniProt O60885); experiment: Inhibition of BRD4 (unknown origin) incubated for 120 mins by TR-FRET assay
MDA-MB-231 [19] = experiment: Induction of cell death in human MDA-MB-231 cells assessed as increase in bright red signal at 0.5 uM preincubated with compound for 2 hrs followed by light irradiation with 660 nm 20 mW/cm2 for 10 mins and measured after 12 hrs by Calcein-AM staining based inverted fluorescence microscopic analysis; assay type: functional; details: time 850.0 min
MDA-MB-231 [20] = experiment: Induction of ROS production in human MDA-MB-231 cells assessed as increase in green fluorescent intensity at 0.1 uM preincubated with compound for 2 hrs followed by light irradiation for 10 mins in presence of NaN3 by DCFH-DA probe based flow cytometry; assay type: functional, cell-based; details: time 130.0 min
[21] = biological target: T1, Bromodomain-containing protein 4; experiment: Inhibition of BRD4 in human MDA-MB-231 cells assessed as downregulation of c-Myc expression at 0.5 to 2.5 uM incubated for 24 hrs by Western blot analysis; assay type: cell-based; details: dose 0.5-2.5 µM
MDA-MB-231 [22] = experiment: Induction of ROS production in human MDA-MB-231 cells assessed as increase in green fluorescent intensity at 0.1 uM preincubated with compound for 2 hrs followed by light irradiation for 10 mins in presence of tiron by DCFH-DA probe based flow cytometry; assay type: functional, cell-based; details: time 130.0 min
[23] = Toxicity in BALB/c mouse implanted with mouse 4T1 cells at 2.5 mg/kg, iv; assay type: organism-based; details: in vivo
MDA-MB-231 [24] = experiment: Induction of pyroptosis in human MDA-MB-231 cells assessed as effect on cleaved GSDMD expression at 0.1 uM preincubated with compound for 2 hrs followed by light irradiation with 660 nm 20 mW/cm2 for 10 mins and measured after 24 hrs by Western blot analysis; assay type: functional, cell-based; details: time 1570.0 min
[25] = Photophysical property of the compound assessed as maximum fluorescent emission peak at by fluorescence at 10 uM spectrophotometric analysis; assay type: physicochemical
[26] = Toxicity in BALB/c mouse implanted with mouse 4T1 cells assessed as spleen damage at 2.5 mg/kg, iv measured after 14 days by H and E staining based analysis; assay type: organism-based; details: in vivo, 336 h, time 14 day
MDA-MB-231 [27] = experiment: Induction of ROS production in human MDA-MB-231 cells assessed as increase in green fluorescent intensity at 0.1 uM preincubated with compound for 2 hrs followed by light irradiation for 10 mins by DCFH-DA probe based flow cytometry; assay type: functional, cell-based; details: time 130.0 min
MDA-MB-231 [28] = experiment: […] in human MDA-MB-231 cells assessed as decrease in RAD51 expression preincubated with compound for 2 hrs followed by light irradiation with 660 nm 20 mW/cm2 for 10 mins and measured after 24 hrs by Western blot analysis; assay type: functional, cell-based; details: time 1570.0 min
MDA-MB-231 [29] = experiment: Induction of pyroptosis in human MDA-MB-231 cells assessed as cell swelling at 0.25 uM preincubated with compound for 2 hrs followed by light irradiation with 660 nm 20 mW/cm2 for 10 mins and measured after 24 hrs by CLSM imaging analysis; assay type: functional, cell-based; details: time 1570.0 min
[30] = Induction of ROS generation in PBS buffer assessed as increase in superoxide anion radical level by measuring increase in DHR123 fluorescence intensity at 5 uM irradiated with 660 nm 20 mW/cm2 light for upto 7 mins by DHR123 probe based fluorescence spectra analysis; assay type: functional
MDA-MB-231 [31] = experiment: Induction of autophagy in human MDA-MB-231 cells assessed as downregulation p62 expression preincubated with compound for 2 hrs followed by light irradiation with 660 nm 20 mW/cm2 for 10 mins and measured after 24 hrs by Western blot analysis; assay type: functional, cell-based; details: time 1570.0 min
4T1 [32] = experiment: Antitumor activity against mouse 4T1 cells implanted in female BALB/c mouse assessed as inhibition of tumor growth at 2.5 mg/kg, iv preincubated with compound for 3 hrs followed by light irradiation with 660 nm 300 mW/cm2 for 3 min and measured after 14 days; assay type: functional, organism-based; details: time 20343.0 min
4T1 [33] = experiment: Antitumor activity against mouse 4T1 cells implanted in female BALB/c mouse assessed as increase in T cell infiltration at 2.5 mg/kg, iv preincubated with compound for 3 hrs followed by light irradiation with 660 nm 300 mW/cm2 for 3 min and measured after 14 days; assay type: functional, organism-based; details: time 20343.0 min
[34] = Biodistribution in female BALB/c mouse tumor at 2.5 mg/kg, iv measured at 1 hr; assay type: ADME, organism-based, Neoplasm; details: in vivo
MDA-MB-231 [35] = experiment: Down regulation of PD-L1 expression in human MDA-MB-231 cells at 0.1 uM preincubated with compound for 2 hrs followed by light irradiation with 660 nm 20 mW/cm2 for 10 mins and measured after 24 hrs by Western blot analysis; assay type: functional, cell-based; details: time 1570.0 min
[36] = Toxicity in BALB/c mouse implanted with mouse 4T1 cells assessed as heart damage at 2.5 mg/kg, iv measured after 14 days by H and E staining based analysis; assay type: organism-based; details: in vivo, 336 h, time 14 day
4T1 [37] = experiment: Antitumor activity against mouse 4T1 cells implanted in female BALB/c mouse assessed as increase in CD8+ T cells at 2.5 mg/kg, iv preincubated with compound for 3 hrs followed by light irradiation with 660 nm 300 mW/cm2 for 3 min and measured after 14 days; assay type: functional, organism-based; details: time 20343.0 min
[38] = Toxicity in BALB/c mouse implanted with mouse 4T1 cells assessed as kidney damage at 2.5 mg/kg, iv measured after 14 days by H and E staining based analysis; assay type: organism-based; details: in vivo, 336 h, time 14 day
[39] = Drug uptake in human MDA-MB-231 cells assessed as increase in fluorescence intensity at 2.5 uM measured after 2 hrs by flow cytometry analysis; assay type: ADME, cell-based; details: mda-mb-231, 2 h
MDA-MB-231 [40] = experiment: Induction of ferroptosis in human MDA-MB-231 cells assessed as increase in intracellular LPO accumulation by measuring green fluorescence intensity at 0.1 uM preincubated with compound for 2 hrs followed by light irradiation with 660 nm 20 mW/cm2 for 10 mins and measured after 12 hrs; assay type: functional, cell-based; details: time 850.0 min
MDA-MB-231 [41] = experiment: Induction of ferroptosis in human MDA-MB-231 cells assessed as decrease in GSH level at 0.1 uM preincubated with compound for 2 hrs followed by light irradiation with 660 nm 20 mW/cm2 for 10 mins and measured after 12 hrs; assay type: functional, cell-based; details: time 850.0 min
MDA-MB-231 [42] = experiment: Effect on LDH level in human MDA-MB-231 cells preincubated with compound for 2 hrs followed by light irradiation with 660 nm 20 mW/cm2 for 10 mins and measured after 24 hrs; assay type: functional, cell-based; details: time 1570.0 min

In the case of `CCN(CC)c1ccc2nc3c(cc(NCc4ccc(NC(=O)C[C@H]5N=C(c6ccc(Cl)cc6)c6c(sc(C)c6C)-n6c(C)nnc65)cc4)c4ccccc43)[s+]c2c1.[Cl-]`, the Activity (MDA-MB-231 [1]) is reported as “Active”, the Activity (MDA-MB-231 [2]) is reported as “Active” and the Activity [3] is reported as “Active”. For the same compound, the Activity (MDA-MB-231 [4]) was “inactive”, the IC50 [5] was 110 nM and the Activity (MDA-MB-231 [6]) was “Active”. For the same compound, the Activity (MDA-MB-231 [7]) was “Active”, the Activity (4T1 [8]) was “Active” and the Activity (MDA-MB-231 [9]) was “Active”. For the same compound, the Drug uptake [10] was “Active”, the Activity (MDA-MB-231 [11]) was “Active” and the Activity (MDA-MB-231 [12]) was “Active”. For the same compound, the Activity [13] was “Non-toxic”, the Activity (MDA-MB-231 [14]) was “Active” and the Activity (4T1 [15]) was “Active”. For the same compound, the Activity (MDA-MB-231 [16]) was “Active”, the Activity (MDA-MB-231 [17]) was “Dose-dependent-effect” and the IC50 [18] was 45 nM. For the same compound, the Activity (MDA-MB-231 [19]) was “Active”, the Activity (MDA-MB-231 [20]) was “inactive” and the inhibition [21] was “Active”. The Activity (MDA-MB-231 [22]) was “Active”, the Activity [23] was “Non-toxic” and the Activity (MDA-MB-231 [24]) was “inactive”. The Activity [25] was “Active”, the Activity [26] was “Non-toxic” and the Activity (MDA-MB-231 [27]) was “Active”. The Activity (MDA-MB-231 [28]) was “Active”, the Activity (MDA-MB-231 [29]) was “Active” and the Activity [30] was “Active”. The Activity (MDA-MB-231 [31]) was “Active”, the Activity (4T1 [32]) was “Active” and the Activity (4T1 [33]) was “Active”. The Drug uptake [34] was “Active”, the Activity (MDA-MB-231 [35]) was “Active” and the Activity [36] was “Non-toxic”. The Activity (4T1 [37]) was “Active”, the Activity [38] was “Non-toxic” and the Drug uptake [39] was “Active”. For the same compound, the Activity (MDA-MB-231 [40]) was “Active”, the Activity (MDA-MB-231 [41]) was “Active” and the Activity (MDA-MB-231 [42]) was “Active”.

Reference: ChEMBL document CHEMBL6087394, “Immune Checkpoint-Modulating Photosensitizer That Targets BRD4 for Cancer Photoimmunotherapy” (J Med Chem, 2024)
